# Results as given in patent US9260760B2, “Method for determining complete response to anticancer therapy” (Board of Regents, The University of Texas System, priority 2012, dated 2016).
# Several values for one entry are separate records, joined by “and”; a condition that tells them apart may be missing. Equal entries are not always repeated.
# Columns and labels:
# [1] = test system: metastatic colorectal cancer; assay: Study 2: complete responders to XCEL; CR duration, PFS, OS, relapse; format: in vivo, human
# Excerpt: This retrospective study was approved by the institutional review board of The University of Texas M. D. Anderson Cancer Center. […] All patients were subjected to routine clinical examinations, laboratory analyses, and computed tomography before receiving XCEL described previously. All patient data were to be independently audited and radiographic images depicting CR were reviewed and agreed upon by two independent radiologists. All 19 patients had pathological confirmation of metastatic cancer ( ). Treatment-related toxicity was graded using the National Institutes of Health's Common Terminology Criteria for Adverse Events, version 3.0. Tumor responses were evaluated using RECIST criteria with complete response defined as complete radiographic disappearance of measurable or evaluable disease and normalization of tumor marker. The death date was ascertained by searching (ssdi.genealogy.rootsweb.com) using social security numbers. The cutoff point for collection of survival was October 2005. Continuous variables were summarized using the mean (±standard deviation) or the median (range). Categorical variables were summarized in frequency tables. Comparisons of important subgroups for these variables were made using the chi-square test or Fisher's exact test, as appropriate. Time to complete response was defined as time to start XCEL therapy to first documented radiographic complete response. Duration of complete response was defined as time to first CR to first recurrence or death. […] Patients were censored at the date of last follow-up if they had not progressed or died. Progression-free and overall survival distributions were summarized using the method of Kaplan and Meier. All response rates, progression-free survival and overall survival were calculated based on the 95% confidence interval (CI). Event chart was created using symbolized events versus time descriptively.
# [2] = earlier study, cited from earlier work
smiles,measurement,setting,value
Cc1ccc(-c2cc(C(F)(F)F)nn2-c2ccc(S(N)(=O)=O)cc2)cc1 [XCEL],relapse,[1]; all (eight relapses),41%
same,carcinoma embryonic antigen level,[1]; all nine patients with elevated CEA,normalization of CEA
same,Five-year OS,[1]; all patients,64%
same,Five-year PFS from XCEL,[1]; all patients,57%
same,median OS,[1]; all patients,54 months
same,CR rate,[1]; first-line responders,90%
same,first-line responders who achieved CR,[1]; in vivo,Eight of nine
same,median time to CR,[1]; in vivo,6.5 months
same,median time to relapse from CR date,[1]; in vivo,14 months
same,Five-year PFS from XCEL,[1]; none-surgical group / unresected CR patients,71% and 70%
same,Five-year OS,[1]; none-surgical patients / unresected CR patients,92%
same,confirmed pathological CR,[1]; one patient,5%
same,median duration of CR,[1]; resected patients,13 months
same,relapse,[1]; resected patients,67%
same,CR rate,"[1]; retroperitoneal nodal metastasis, with radiation",50%
same,patients who discontinued XCEL and remained in CR,"[1]; six of 14 patients, median follow-up of 36 months",43%
same,median duration of CR,[1]; unresected patients,not reached
same,relapse,[1]; unresected patients,29%
same,sustained CR rate,[1]; unresected patients,70%
same,CR site,"[1]; unresected patients, carcinomatosis",21%
same,CR site,"[1]; unresected patients, liver",36%
same,CR site,"[1]; unresected patients, nodal disease",43%
same,incidence of grade ⅔ HFS,"[2]; capecitabine 1000 mg/m2/d bid (Lin et al., 2002)",12.5%
same,grade ¾ diarrhea,"[2]; versus capecitabine alone (Lin et al., 2002)",reduced
